Read-outs that look alike come from different tables or passages of the source.
Experiments:
AhR [1] = biological target: T1, AhR (Mus musculus, UniProt P30561); test: In vitro assay 2: XRE-luciferase reporter assay, antagonism in mouse cell line (Hepa1c1c7); assay type: cell-based; conditions: Hepa1c1c7 XRE-Luc, cells treated with kynurenine (#), 6 hours
T1 sequence (P30561 1-848): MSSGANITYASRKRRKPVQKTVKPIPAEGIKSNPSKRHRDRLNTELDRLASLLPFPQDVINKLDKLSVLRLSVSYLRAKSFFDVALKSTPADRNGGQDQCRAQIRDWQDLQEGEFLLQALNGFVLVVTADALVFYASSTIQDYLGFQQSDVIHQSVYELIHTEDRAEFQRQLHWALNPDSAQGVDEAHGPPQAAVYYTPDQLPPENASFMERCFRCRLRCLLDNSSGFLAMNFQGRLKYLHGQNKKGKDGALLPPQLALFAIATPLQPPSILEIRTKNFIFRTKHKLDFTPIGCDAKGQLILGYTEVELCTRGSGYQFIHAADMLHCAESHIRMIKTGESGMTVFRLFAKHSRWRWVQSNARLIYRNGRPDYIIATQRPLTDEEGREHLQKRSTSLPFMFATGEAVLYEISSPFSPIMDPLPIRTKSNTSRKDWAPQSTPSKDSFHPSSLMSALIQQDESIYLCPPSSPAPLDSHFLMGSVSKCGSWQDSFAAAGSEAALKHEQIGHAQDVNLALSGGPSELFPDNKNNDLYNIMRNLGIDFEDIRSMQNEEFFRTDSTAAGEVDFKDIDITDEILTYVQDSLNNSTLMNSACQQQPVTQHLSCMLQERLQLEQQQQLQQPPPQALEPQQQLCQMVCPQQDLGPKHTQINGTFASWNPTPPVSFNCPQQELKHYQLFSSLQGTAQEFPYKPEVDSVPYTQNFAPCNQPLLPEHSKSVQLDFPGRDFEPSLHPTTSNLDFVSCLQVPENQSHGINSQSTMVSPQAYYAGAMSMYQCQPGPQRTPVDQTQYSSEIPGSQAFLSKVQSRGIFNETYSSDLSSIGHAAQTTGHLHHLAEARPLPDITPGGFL
Excerpt: In Vitro XRE-Luciferase Reporter Assay (In Vitro Assay 1, 2, 3)
AhR activation leads the induction of target gene expression such as CYP1A1 and CYP1B1 by AhR binding to AhR-responsive DNA elements also known as xenobiotics responsive elements (XRE). The assay for measuring AhR activity herein is the luciferase assay using cell lines transfected with luciferase reporter plasmid containing XREs at the upstream of the reporter gene. Cells transfected with XRE-luciferase reporter (XRE-Luc) plasmid drive luciferase activity reflecting activation and inhibition of AhR in the cells. In addition to transfection with XRE-reporter vector, cells were co-transfected with Nano-luciferase reporter gene construct (Nano-Luc) containing constitutively active promoter as internal control. Kynurenine (an endogenous AhR agonist) was used to stimulate cells to test antagonistic properties of the compounds. The half-maximal inhibitory concentration (IC50) or half-maximal effective concentration (EC50) value was calculated using nonlinear regression (four parameters) with Prism8.0 software (GraphPad).
In Vitro Assay 2: Antagonism in Mouse Cell Line
Hepa1c1c7 (murine liver cancer cell line) cells co-transfected with XRE-Luc and Nano-Luc plasmids were plated in complete medium and incubated overnight at 37° C. in a CO2 incubator. Following incubation, cells were treated with AhR activating ligands such as kynurenic acid, kynurenine(#) with or without test compounds for 6 hours. Firefly luciferase and Nano-luciferase activity was measured using Nano-glo Luciferase kit (Promega) and relative luciferase activity (Firefly/Nano-Luc) was used to calculate IC50 values. The relative luciferase activity was further normalized with agonists alone group as the maximum control and the vehicle group as the minimum control. (IC50 Values are grouped as A, B, C and D, whereby A: IC50<0.01 μM; B: 0.01<IC50<0.1 μM; C: 0.1<IC50<1.0 μM; D: IC50>1.0 μM)

AhR [2] = biological target: T2, AhR (Homo sapiens, UniProt P35869); test: In vitro assay 3: XRE-luciferase reporter assay, agonism in human cell line (HepG2); assay type: cell-based; conditions: HepG2 XRE-Luc, tryptophan free medium, test compound alone, 6 hours
T2 construct: host or cells: HepG2
T2 sequence (P35869 11-848): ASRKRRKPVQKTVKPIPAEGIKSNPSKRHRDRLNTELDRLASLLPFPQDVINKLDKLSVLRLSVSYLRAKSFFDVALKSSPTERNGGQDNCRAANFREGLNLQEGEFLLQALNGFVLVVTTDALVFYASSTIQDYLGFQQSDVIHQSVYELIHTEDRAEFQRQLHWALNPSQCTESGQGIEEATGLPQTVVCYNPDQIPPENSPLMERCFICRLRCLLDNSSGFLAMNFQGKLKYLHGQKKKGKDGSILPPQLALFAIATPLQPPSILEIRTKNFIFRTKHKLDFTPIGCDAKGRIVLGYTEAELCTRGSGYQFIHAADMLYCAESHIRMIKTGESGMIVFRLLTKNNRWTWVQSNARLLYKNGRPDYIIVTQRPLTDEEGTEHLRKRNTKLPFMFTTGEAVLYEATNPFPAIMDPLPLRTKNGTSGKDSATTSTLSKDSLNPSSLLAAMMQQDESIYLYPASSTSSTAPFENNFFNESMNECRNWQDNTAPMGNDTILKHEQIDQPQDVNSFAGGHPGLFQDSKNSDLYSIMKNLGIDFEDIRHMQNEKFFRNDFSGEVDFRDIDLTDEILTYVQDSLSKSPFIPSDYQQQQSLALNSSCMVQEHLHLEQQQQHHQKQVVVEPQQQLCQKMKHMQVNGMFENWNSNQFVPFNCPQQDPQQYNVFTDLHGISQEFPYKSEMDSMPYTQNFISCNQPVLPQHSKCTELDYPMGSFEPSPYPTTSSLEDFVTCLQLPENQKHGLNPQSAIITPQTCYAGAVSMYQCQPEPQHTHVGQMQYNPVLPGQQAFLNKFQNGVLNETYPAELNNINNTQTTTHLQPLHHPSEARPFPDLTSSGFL
How it was run: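 HepG2 cells co-transfected with XRE-firefly luciferase and constitutive Nano-luciferase reporters, plated in tryptophan-free medium with 1% dialyzed FBS, then treated with compound for 6 h at 37 °C. Firefly/Nano-Luc ratio used to derive EC50 by four-parameter nonlinear regression; TCDD as positive control.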

CC(CO)n1cnc2c(-c3cccnc3)nc(-c3ccc(Cl)cc3)cc2c1=O (stereo not drawn) [Example 46, 6-(4-chlorophenyl)-3-(1-hydroxypropan-2-yl)-8-(pyridin-3-yl)pyrido[3,4-d]pyrimidin-4(3H)-one]
IC50 (AhR [1]): < 0.01 µM
EC50 (AhR [2]; read-out: Assay 3: AhR-Luc Human Agonism (EC50)): > 30000 nM
EC50 (AhR [2]; read-out: Assay 3: AhR-Luc Human Agonism (EC50, nM), class in brackets): > 10000 nM
